Experimental data reported in ChEMBL document CHEMBL4507317, “Data for DCP probe BAY-899” (2021).

Columns and labels:
[1] = biological target: Myosin light chain kinase (Homo sapiens) (UniProt Q32MK0); settings: Compound concentration 1000.0 nM
[2] = biological target: Homeodomain-interacting protein kinase 2 (Homo sapiens) (UniProt Q9H2X6); settings: Compound concentration 1000.0 nM
[3] = biological target: Dual specificity protein kinase CLK1 (Homo sapiens) (UniProt P49759); settings: Compound concentration 1000.0 nM
[4] = biological target: Ribosomal protein S6 kinase alpha-2 (Homo sapiens) (UniProt Q15349); settings: Compound concentration 1000.0 nM
[5] = biological target: cGMP-dependent protein kinase 2 (Homo sapiens) (UniProt Q13237); settings: Compound concentration 1000.0 nM
[6] = biological target: ALK tyrosine kinase receptor (Homo sapiens) (UniProt Q9UM73); settings: Compound concentration 1000.0 nM
[7] = biological target: Phosphatidylinositol 4-phosphate 3-kinase C2 domain-containing subunit beta (Homo sapiens) (UniProt O00750); settings: Compound concentration 1000.0 nM
[8] = biological target: Dual specificity mitogen-activated protein kinase kinase 7 (Homo sapiens) (UniProt O14733); settings: Compound concentration 1000.0 nM
[9] = biological target: T1, Muscarinic acetylcholine receptor M1 (Homo sapiens) (UniProt P11229); settings: Compound concentration 10.0 uM
T1 sequence (whole entry): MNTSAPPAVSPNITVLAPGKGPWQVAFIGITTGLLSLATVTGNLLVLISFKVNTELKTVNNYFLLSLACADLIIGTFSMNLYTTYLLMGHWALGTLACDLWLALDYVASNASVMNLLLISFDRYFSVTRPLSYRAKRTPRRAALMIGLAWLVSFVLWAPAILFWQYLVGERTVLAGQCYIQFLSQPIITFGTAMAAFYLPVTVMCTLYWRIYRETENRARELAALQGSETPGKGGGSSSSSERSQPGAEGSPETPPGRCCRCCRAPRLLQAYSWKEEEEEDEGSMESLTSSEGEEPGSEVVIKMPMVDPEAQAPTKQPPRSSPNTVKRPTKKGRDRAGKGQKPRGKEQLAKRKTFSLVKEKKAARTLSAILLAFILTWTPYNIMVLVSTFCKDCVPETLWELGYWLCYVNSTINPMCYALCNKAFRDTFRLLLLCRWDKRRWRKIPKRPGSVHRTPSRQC

[10] = biological target: Fibroblast growth factor receptor 2 (Homo sapiens) (UniProt P21802); settings: Compound concentration 1000.0 nM
[11] = biological target: Mitogen-activated protein kinase kinase kinase 5 (Homo sapiens) (UniProt Q99683); settings: Compound concentration 1000.0 nM
[12] = test system: Tyrosine-protein kinase ABL1 (Homo sapiens), P00519 [Q252H]; settings: Compound concentration 1000.0 nM
[13] = biological target: Phosphatidylinositol 4-kinase beta (Homo sapiens) (UniProt Q9UBF8); settings: Compound concentration 1000.0 nM
[14] = biological target: Serine/threonine-protein kinase VRK2 (Homo sapiens) (UniProt Q86Y07); settings: Compound concentration 1000.0 nM
[15] = biological target: Myotonin-protein kinase (Homo sapiens) (UniProt Q09013); settings: Compound concentration 1000.0 nM
[16] = biological target: Serine/threonine-protein kinase 36 (Homo sapiens) (UniProt Q9NRP7); settings: Compound concentration 1000.0 nM
[17] = biological target: Tyrosine-protein kinase SYK (Homo sapiens) (UniProt P43405); settings: Compound concentration 1000.0 nM
[18] = biological target: Mitogen-activated protein kinase 3 (Homo sapiens) (UniProt P27361); settings: Compound concentration 1000.0 nM
[19] = test system: Phosphatidylinositol 4,5-bisphosphate 3-kinase catalytic subunit alpha isoform (Homo sapiens), P42336 [M1043I]; settings: Compound concentration 1000.0 nM
[20] = biological target: Serine/threonine-protein kinase DCLK2 (Homo sapiens) (UniProt Q8N568); settings: Compound concentration 1000.0 nM
[21] = biological target: 5'-AMP-activated protein kinase catalytic subunit alpha-1 (Homo sapiens) (UniProt Q13131); settings: Compound concentration 1000.0 nM
[22] = biological target: Angiopoietin-1 receptor (Homo sapiens) (UniProt Q02763); settings: Compound concentration 1000.0 nM
[23] = biological target: Cyclin-dependent kinase 9 (Homo sapiens) (UniProt P50750); settings: Compound concentration 1000.0 nM
[24] = biological target: 5-hydroxytryptamine receptor 1D (Homo sapiens) (UniProt P28221); settings: Compound concentration 10.0 uM
[25] = biological target: Serine/threonine-protein kinase Chk2 (Homo sapiens) (UniProt O96017); settings: Compound concentration 1000.0 nM
[26] = test system: Proto-oncogene tyrosine-protein kinase receptor Ret (Homo sapiens), P07949 [V804L]; settings: Compound concentration 1000.0 nM
[27] = biological target: Peripheral plasma membrane protein CASK (Homo sapiens) (UniProt O14936); settings: Compound concentration 1000.0 nM
[28] = biological target: STE20/SPS1-related proline-alanine-rich protein kinase (Homo sapiens) (UniProt Q9UEW8); settings: Compound concentration 1000.0 nM
[29] = biological target: MAP/microtubule affinity-regulating kinase 4 (Homo sapiens) (UniProt Q96L34); settings: Compound concentration 1000.0 nM
[30] = biological target: Fibroblast growth factor receptor 3 (Homo sapiens) (UniProt P22607); settings: Compound concentration 1000.0 nM
[31] = biological target: Serine/threonine-protein kinase PLK4 (Homo sapiens) (UniProt O00444); settings: Compound concentration 1000.0 nM
[32] = biological target: Myosin-IIIb (Homo sapiens) (UniProt Q8WXR4); settings: Compound concentration 1000.0 nM
[33] = biological target: Serine/threonine-protein kinase PAK 4 (Homo sapiens) (UniProt O96013); settings: Compound concentration 1000.0 nM
[34] = biological target: Sigma intracellular receptor 2 (Homo sapiens, UniProt Q5BJF2); assay: GPCRScan assay: inhibition of Sigma 2; parameters: radioligand conc. used [nm] 5.0, parental cells HEKT
[35] = biological target: Phosphatidylinositol 5-phosphate 4-kinase type-2 gamma (Homo sapiens) (UniProt Q8TBX8); settings: Compound concentration 1000.0 nM
[36] = biological target: Histamine H4 receptor (Homo sapiens) (UniProt Q9H3N8); settings: Compound concentration 10.0 uM
[37] = test system: Fibroblast growth factor receptor 3 (Homo sapiens), P22607 [G697C]; settings: Compound concentration 1000.0 nM

Chain of Phosphatidylinositol 4-phosphate 3-kinase C2 domain-containing subunit beta (Homo sapiens) (O00750 whole entry, the tested form may be a part): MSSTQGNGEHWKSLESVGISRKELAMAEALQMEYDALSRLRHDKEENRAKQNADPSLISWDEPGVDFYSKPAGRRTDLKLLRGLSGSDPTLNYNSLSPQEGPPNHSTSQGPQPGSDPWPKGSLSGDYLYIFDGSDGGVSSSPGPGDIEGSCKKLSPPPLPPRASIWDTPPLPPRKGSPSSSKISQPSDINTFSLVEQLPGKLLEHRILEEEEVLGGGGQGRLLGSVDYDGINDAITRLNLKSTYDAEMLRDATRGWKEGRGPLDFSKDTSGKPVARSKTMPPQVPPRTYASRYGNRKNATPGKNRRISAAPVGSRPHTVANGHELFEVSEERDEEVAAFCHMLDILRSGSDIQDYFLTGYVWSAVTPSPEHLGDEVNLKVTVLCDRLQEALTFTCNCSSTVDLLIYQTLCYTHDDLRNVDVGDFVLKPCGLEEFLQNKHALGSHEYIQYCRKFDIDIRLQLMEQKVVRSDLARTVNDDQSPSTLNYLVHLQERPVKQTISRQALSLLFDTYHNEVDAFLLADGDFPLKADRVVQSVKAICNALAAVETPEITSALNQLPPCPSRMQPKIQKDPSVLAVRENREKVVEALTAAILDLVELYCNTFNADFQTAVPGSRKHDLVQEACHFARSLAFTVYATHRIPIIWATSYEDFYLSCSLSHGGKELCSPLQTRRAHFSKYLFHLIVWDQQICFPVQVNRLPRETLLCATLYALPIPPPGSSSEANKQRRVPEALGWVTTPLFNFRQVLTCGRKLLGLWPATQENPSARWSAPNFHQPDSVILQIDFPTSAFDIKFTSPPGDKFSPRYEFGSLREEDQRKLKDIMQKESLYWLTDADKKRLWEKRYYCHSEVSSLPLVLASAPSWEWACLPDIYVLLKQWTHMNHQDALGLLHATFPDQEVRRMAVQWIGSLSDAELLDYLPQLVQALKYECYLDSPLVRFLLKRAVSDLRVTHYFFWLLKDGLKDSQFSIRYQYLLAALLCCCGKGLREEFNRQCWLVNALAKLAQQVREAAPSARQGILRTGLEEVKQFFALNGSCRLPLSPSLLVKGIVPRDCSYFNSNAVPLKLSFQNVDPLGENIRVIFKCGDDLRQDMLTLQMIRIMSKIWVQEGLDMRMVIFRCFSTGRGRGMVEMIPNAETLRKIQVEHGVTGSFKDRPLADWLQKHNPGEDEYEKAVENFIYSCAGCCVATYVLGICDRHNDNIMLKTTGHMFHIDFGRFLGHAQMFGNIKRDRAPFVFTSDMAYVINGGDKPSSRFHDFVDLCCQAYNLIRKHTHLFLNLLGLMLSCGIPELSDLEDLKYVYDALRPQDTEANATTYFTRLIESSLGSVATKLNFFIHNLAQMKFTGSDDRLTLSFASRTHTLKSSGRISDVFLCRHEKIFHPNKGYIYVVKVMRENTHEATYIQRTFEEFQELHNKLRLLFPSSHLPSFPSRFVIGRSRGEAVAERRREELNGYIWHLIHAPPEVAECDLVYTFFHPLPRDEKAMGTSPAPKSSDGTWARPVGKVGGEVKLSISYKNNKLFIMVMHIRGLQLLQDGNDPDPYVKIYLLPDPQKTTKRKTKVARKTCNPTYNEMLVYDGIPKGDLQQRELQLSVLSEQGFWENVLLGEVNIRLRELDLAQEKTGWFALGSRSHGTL
Chain of Dual specificity mitogen-activated protein kinase kinase 7 (Homo sapiens) (O14733 whole entry): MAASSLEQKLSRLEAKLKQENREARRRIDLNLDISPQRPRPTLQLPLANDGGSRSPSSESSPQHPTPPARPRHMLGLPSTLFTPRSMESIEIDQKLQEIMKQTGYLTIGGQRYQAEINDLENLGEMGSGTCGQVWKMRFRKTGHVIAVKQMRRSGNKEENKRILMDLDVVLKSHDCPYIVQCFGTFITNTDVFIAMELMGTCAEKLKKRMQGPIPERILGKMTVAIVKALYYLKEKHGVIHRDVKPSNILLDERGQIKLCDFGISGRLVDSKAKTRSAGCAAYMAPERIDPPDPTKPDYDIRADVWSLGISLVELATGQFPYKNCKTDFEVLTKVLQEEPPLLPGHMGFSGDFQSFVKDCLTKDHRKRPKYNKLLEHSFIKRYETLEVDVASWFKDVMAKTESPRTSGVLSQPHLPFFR
Chain of Histamine H4 receptor (Homo sapiens) (Q9H3N8 whole entry): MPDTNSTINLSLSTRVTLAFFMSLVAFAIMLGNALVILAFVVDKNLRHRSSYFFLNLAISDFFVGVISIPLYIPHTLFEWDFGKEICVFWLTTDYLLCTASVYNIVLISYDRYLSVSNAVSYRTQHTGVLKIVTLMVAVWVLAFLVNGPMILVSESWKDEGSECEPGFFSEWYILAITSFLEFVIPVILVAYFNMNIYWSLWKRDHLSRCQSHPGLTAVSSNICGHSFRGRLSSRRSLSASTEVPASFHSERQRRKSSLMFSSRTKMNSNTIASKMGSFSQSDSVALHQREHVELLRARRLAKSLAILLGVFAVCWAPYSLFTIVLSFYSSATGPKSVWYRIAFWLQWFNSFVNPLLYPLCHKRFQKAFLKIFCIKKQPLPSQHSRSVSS
Chain of Serine/threonine-protein kinase Chk2 (Homo sapiens) (O96017 whole entry): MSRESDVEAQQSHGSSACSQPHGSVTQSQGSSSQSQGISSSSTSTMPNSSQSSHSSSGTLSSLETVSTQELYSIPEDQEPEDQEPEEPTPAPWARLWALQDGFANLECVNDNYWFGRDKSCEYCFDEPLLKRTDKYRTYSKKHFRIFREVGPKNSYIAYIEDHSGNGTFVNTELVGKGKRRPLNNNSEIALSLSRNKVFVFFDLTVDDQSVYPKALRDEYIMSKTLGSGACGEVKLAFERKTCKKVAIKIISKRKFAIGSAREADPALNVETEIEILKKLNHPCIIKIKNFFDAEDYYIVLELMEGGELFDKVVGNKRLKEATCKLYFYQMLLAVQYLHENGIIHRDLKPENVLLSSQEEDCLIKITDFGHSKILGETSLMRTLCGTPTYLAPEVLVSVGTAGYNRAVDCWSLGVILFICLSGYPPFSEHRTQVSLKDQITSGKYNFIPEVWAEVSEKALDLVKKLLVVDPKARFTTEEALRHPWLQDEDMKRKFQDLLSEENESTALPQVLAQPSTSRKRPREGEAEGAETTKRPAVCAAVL
Chain of 5'-AMP-activated protein kinase catalytic subunit alpha-1 (Homo sapiens) (Q13131 whole entry, looked up): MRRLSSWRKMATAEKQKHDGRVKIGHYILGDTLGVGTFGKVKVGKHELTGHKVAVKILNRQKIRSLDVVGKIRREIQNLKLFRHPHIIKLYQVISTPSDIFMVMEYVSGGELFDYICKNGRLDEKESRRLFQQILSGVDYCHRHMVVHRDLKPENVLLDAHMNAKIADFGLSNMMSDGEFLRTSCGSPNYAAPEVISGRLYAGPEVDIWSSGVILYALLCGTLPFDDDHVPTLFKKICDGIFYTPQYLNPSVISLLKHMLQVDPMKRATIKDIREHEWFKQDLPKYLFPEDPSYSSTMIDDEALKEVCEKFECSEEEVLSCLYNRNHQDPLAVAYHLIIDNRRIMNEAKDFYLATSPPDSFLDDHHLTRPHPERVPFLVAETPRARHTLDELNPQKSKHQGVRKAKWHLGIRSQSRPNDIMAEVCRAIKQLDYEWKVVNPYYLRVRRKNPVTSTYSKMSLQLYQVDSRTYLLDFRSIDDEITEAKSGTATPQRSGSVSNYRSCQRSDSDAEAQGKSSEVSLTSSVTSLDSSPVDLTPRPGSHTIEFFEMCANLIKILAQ
Chain of Phosphatidylinositol 4,5-bisphosphate 3-kinase catalytic subunit alpha isoform (Homo sapiens), P42336 [M1043I] (P42336 whole entry M1043I, canonical isoform): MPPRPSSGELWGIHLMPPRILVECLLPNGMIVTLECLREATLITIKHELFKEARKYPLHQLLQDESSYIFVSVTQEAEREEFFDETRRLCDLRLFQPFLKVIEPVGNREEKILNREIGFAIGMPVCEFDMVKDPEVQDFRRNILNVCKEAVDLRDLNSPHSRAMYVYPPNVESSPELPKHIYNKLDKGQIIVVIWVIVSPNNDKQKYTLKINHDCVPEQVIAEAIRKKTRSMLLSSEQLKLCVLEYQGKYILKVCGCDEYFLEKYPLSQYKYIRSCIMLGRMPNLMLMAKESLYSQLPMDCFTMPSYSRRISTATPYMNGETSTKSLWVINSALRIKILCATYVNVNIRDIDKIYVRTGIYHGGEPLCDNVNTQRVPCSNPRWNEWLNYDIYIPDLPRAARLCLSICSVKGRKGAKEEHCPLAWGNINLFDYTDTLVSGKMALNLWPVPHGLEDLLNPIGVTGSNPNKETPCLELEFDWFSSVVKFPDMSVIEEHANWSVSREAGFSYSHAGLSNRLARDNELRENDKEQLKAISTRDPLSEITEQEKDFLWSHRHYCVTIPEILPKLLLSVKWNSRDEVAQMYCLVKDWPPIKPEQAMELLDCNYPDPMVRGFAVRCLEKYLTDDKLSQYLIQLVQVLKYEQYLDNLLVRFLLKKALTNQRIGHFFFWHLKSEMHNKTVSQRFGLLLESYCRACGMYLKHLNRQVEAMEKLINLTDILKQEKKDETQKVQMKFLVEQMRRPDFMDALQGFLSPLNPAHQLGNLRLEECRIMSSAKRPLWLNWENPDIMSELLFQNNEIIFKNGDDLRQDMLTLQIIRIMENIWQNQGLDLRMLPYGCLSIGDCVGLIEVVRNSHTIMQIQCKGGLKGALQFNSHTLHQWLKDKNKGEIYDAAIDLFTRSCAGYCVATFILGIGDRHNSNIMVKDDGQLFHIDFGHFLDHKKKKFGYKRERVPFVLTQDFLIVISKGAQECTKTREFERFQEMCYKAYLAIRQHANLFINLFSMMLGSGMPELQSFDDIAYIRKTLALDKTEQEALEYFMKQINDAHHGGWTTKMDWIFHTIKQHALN
Chain of Mitogen-activated protein kinase 3 (Homo sapiens) (P27361 whole entry, canonical isoform): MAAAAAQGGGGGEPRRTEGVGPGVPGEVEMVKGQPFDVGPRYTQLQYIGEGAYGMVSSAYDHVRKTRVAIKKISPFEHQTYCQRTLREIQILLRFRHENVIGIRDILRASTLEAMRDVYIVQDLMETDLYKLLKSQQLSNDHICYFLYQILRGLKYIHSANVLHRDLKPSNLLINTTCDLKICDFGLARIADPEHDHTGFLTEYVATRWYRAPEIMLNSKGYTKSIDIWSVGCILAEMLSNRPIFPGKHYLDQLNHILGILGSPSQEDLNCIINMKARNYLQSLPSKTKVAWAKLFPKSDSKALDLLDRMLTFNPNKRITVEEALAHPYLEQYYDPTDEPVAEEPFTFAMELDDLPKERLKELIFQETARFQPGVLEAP

Row | Structure (SMILES) | residual activity [1] [%] | residual activity [2] [%] | residual activity [3] [%] | residual activity [4] [%] | residual activity [5] [%] | residual activity [6] [%] | residual activity [7] [%] | residual activity [8] [%] | inhibition [9] [%] | residual activity [10] [%] | residual activity [11] [%] | residual activity [12] [%] | residual activity [13] [%] | residual activity [14] [%] | residual activity [15] [%] | residual activity [16] [%] | residual activity [17] [%] | residual activity [18] [%] | residual activity [19] [%] | residual activity [20] [%] | also measured
1 | O=C(Nc1cnc(Oc2ccc(F)cc2)nc1)N1CCc2ncccc2[C@@H]1c1ccc(F)cc1 [BAY-899] | 89 | 91 | 80 | 79 | 100 | 99 | 95 | 95 | 7.56 | 98 | 84 | 91 | 89 | 100 | 98 | 91 | 84 | 92 | 100 | 90 | residual activity [21]: 88%; residual activity [22]: 93%; residual activity [23]: 93%; inhibition [24]: 4.38%; residual activity [25]: 92%; residual activity [26]: 86%; residual activity [27]: 94%; residual activity [28]: 77%; residual activity [29]: 91%; residual activity [30]: 89%; residual activity [31]: 100%; residual activity [32]: 100%; residual activity [33]: 82%; Ki [34]: 2.05 µM; residual activity [35]: 86%; inhibition [36]: -4.41%; residual activity [37]: 89%
2 | O=C(Nc1ccc(Oc2ccc(F)cc2)cc1)N1CCc2ncccc2[C@H]1c1ccc(F)cc1 [BAY-897] | 80 | 79 | 86 | 94 | 100 | 100 | 96 | 100 | -2.98 | 93 | 87 | 90 | 75 | 97 | 91 | 89 | 91 | 87 | 89 | 87 | residual activity [21]: 96%; residual activity [22]: 100%; residual activity [23]: 87%; inhibition [24]: 43.3%; residual activity [25]: 94%; residual activity [26]: 95%; residual activity [27]: 100%; residual activity [28]: 82%; residual activity [29]: 86%; residual activity [30]: 83%; residual activity [31]: 94%; residual activity [32]: 83%; residual activity [33]: 94%; Ki [34]: 0.676 µM; residual activity [35]: 94%; inhibition [36]: 7.56%; residual activity [37]: 100%
